Experimental findings from ChEMBL document CHEMBL1154328, “New inhibitors of the complement system inspired in K76-COOH. A SAR study of filifolinol derivatives through modifications of the C3' position” (Bioorg Med Chem Lett, 2009) are described below.

This assay is described as follows: Inhibition of serum complement system-mediated hemolysis of human RBCs.

As to `C[C@H]1CCCC(C)(C)[C@@]12Cc1cc(C(=O)O)ccc1O2`, the IC50 result is given as “Not Active”.

With `CCCN[C@H]1CC[C@H](C)[C@]2(Cc3cc(C(=O)O)ccc3O2)C1(C)C`, for the setting “read-out: IC50”, the IC50 turned out to be 2750 µM.

Turning to `C[C@@H]1CCC2C(C)(C)[C@H](O)[C@H](O)C[C@]2(C)[C@@]12Cc1c(O)cc(C(=O)O)c(C=O)c1O2` (stereo partly specified), the IC50 (read-out: IC50) was 570 µM.

Consider `COc1ccc(C(=O)O)c2c1C[C@@](C)([C@H]1CC=C(C)CC1)O2`, for which the IC50 (read-out: IC50) was 680 µM.

In the case of `C[C@H]1CC[C@@H](O)C(C)(C)[C@@]12Cc1cc(C(=O)O)ccc1O2`, the IC50 (read-out: IC50) was found to be 517 µM.

Take `C=CCO[C@@H]1CC[C@H](C)[C@]2(Cc3cc(C(=O)O)ccc3O2)C1(C)C`: the IC50 (read-out: IC50) came to 3080 µM.

As to `C[C@H]1CC[C@@H](OCC(O)CO)C(C)(C)[C@@]12Cc1cc(C(=O)O)ccc1O2` (stereo partly specified), the IC50 (read-out: IC50) worked out at 4720 µM.

As to `C[C@H]1CC[C@H](O)C(C)(C)[C@@]12Cc1cc(C(=O)O)ccc1O2`, the IC50 (read-out: IC50) turned out to be 12100 µM.

For `C[C@H]1CC[C@@H](OCCO)C(C)(C)[C@@]12Cc1cc(C(=O)O)ccc1O2`, the IC50 (read-out: IC50) was 4400 µM.

Regarding `CCCO[C@@H]1CC[C@H](C)[C@]2(Cc3cc(C(=O)O)ccc3O2)C1(C)C`, the half-inhibitory concentration (IC50) (read-out: IC50) was 548 µM.

On to `COc1ccc(C(=O)O)c2c1C[C@@](C)([C@@H]1CC[C@](C)(O)[C@H](O)C1)O2`, for which the IC50 (read-out: IC50) amounted to 1600 µM.

With `CC1=CC[C@H]([C@]2(C)Cc3c(O)ccc(C(=O)O)c3O2)CC1`, where the note is “read-out: IC50”, the IC50 was 2150 µM.

On to `C[C@H]1CC[C@@](O)(CC(O)CO)C(C)(C)[C@@]12Cc1cc(C(=O)O)ccc1O2` (stereo partly specified) [listing 1 of 2 here], for which the IC50 (read-out: IC50) turned out to be 480 µM.

With `CCCN[C@@H]1CC[C@H](C)[C@]2(Cc3cc(C(=O)O)ccc3O2)C1(C)C`, where the note is “read-out: IC50”, the IC50 is 211 µM.

With `C[C@H]1CC[C@@](O)(CC(O)CO)C(C)(C)[C@@]12Cc1cc(C(=O)O)ccc1O2` (stereo partly specified) [listing 2 of 2 here], for the setting “read-out: IC50”, the IC50 is 3290 µM.

Take `COC(=O)c1ccc2c(c1)C[C@@]1(O2)[C@@H](C)CC[C@@H](O)C1(C)C` [FILIFOLINOL]: the IC50 (read-out: IC50) was 2000 µM.
